pKi: −log10 of the molar value.
Key:
[1] = Inhibition of human N-terminally His6-tagged N-acetylglucosaminyltransferase 3 expressed in HEK293T cells assessed as GN-GnGnbi-PAs molar ratio level incubated for 1 hr using 5 uM GnGnbi-PA acceptor substrate and 0.5 to 4 mM UDP-GlcNAc donor substrate by reverse phase HPLC method
[2] = Inhibition of human N-terminally His6-tagged N-acetylglucosaminyltransferase 3 expressed in HEK293T cells assessed as GN-GnGnbi-PAs molar ratio level incubated for 1 hr using 2.5 to 10 uM GnGnbi-PA acceptor substrate and 20 mM UDP-GlcNAc donor substrate by reverse phase HPLC method

SMILES	pKi [1]	pKi [2]
CO[C@H]1O[C@H](CO[C@H]2O[C@H](CO)[C@@H](O)[C@H](O)[C@@H]2O[C@@H]2O[C@H](CO)[C@@H](O)[C@H](O)[C@H]2NC(C)=O)[C@@H](O[C@@H]2O[C@H](CO)[C@@H](O)[C@H](O)[C@H]2NC(C)=O)[C@H](O[C@H]2O[C@H](CO)[C@@H](O)[C@H](O)[C@@H]2O[C@@H]2O[C@H](CO)[C@@H](O)[C@H](O)[C@H]2NC(C)=O)[C@@H]1O	2.82	1.85
CO[C@H]1O[C@H](CO[C@H]2O[C@H](CO)[C@@H](O)[C@H](O)[C@@H]2O[C@@H]2O[C@H](CO)[C@@H](O)[C@H](O)[C@H]2NC(C)=O)[C@@H](O)[C@H](O[C@H]2O[C@H](CO)[C@@H](O)[C@H](O)[C@@H]2O[C@@H]2O[C@H](CO)[C@@H](O)[C@H](O)[C@H]2NC(C)=O)[C@@H]1O	2.85	2.92

From BindingDB's records for doi:10.1016/j.bmcl.2014.07.074 (Riken-Max Planck Joint Research Center For Systems Chemical …, 2014)
